This passage reports inhibition results from ChEMBL document CHEMBL5500386, “Design, synthesis and bioactivity evaluation of 4-hydroxycoumarin derivatives as potential anti-inflammatory agents against acute lung injury and colitis” (Eur J Med Chem, 2024).

Structures are written as SMILES.

This assay concerns the target T1, Inhibitor of nuclear factor kappa-B kinase subunit beta (Homo sapiens) (UniProt O14920).
T1 sequence (whole entry): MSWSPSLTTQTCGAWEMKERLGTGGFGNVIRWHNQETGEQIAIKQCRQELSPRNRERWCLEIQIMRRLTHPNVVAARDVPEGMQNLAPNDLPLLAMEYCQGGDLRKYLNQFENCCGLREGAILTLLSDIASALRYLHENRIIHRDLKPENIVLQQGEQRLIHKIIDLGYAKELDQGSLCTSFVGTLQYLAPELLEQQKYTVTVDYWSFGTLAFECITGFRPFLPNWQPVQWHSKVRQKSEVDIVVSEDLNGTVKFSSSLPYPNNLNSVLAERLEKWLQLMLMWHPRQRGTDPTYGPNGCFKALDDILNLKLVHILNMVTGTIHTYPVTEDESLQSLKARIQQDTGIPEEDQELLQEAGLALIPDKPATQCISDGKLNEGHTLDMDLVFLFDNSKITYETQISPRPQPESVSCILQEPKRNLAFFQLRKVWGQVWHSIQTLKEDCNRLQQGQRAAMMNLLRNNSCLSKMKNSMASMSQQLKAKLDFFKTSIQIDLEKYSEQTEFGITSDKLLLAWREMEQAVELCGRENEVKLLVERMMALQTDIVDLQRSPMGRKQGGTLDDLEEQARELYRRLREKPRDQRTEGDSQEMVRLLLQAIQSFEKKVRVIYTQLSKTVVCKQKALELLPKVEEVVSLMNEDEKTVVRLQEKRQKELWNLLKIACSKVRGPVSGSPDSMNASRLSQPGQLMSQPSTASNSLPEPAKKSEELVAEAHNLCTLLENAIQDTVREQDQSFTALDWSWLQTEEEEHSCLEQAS
Put plainly: Inhibition of IKKbeta (unknown origin) at 10 uM relative to control.

What is called inhibition is the change of the read-out against control, counted positive when it falls. As for `CC(=O)N1CCN(CCOc2cc(=O)oc3ccccc23)CC1`, the inhibition was -9.11%.
